Source: patent US10501425B2, “Microbiocidal oxadiazole derivatives” (SYNGENTA PARTICIPATIONS AG, priority 2015, dated 2019)

Assays:
[1] = test system: Puccinia recondita f. Sp. Tritici; experiment: Puccinia recondita f. sp. tritici / wheat / leaf disc preventative (brown rust); assay type: in vivo; conditions: foliar, 200 ppm in the applied formulation, wheat leaf segments cv. Kanzler, preventative (inoculated 1 day after application), compared to untreated, read-out: disease control
Outline: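 Preventative leaf-segment test, cv. Kanzler on agar: spray compound, inoculate with spore suspension 1 d post-application, hold at 19° C./75% rh, 12 h/12 h light cycle. Read-out = % disease control vs untreated check at 7–9 d; 200 ppm in applied formulation.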

[2] = test system: Puccinia recondita f. Sp. Tritici; experiment: Puccinia recondita f. sp. tritici / wheat / leaf disc curative (brown rust); assay type: in vivo; conditions: foliar, 24 h, 200 ppm in the applied formulation, wheat leaf segments cv. Kanzler, curative (applied 1 day after inoculation), compared to untreated, read-out: disease control
Outline: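 Curative test: wheat leaf segments cv. Kanzler on agar inoculated with spore suspension, kept dark at 19 °C/75% RH, then sprayed 1 day post-inoculation with compound diluted in water. Incubated at 19 °C, 75% RH, 12 h light/dark; percent disease control versus untreated scored 6–8 days after application.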

[3] = test system: Phakopsora pachyrhizi; experiment: Phakopsora pachyrhizi / soybean / leaf disc preventative (Asian soybean rust); assay type: in vivo; conditions: foliar, 200 ppm in the applied formulation, soybean leaf disks, compared to untreated, read-out: disease control
Outline: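 Read-out is percent disease control relative to untreated check discs, assessed once untreated discs show adequate disease, 12 to 14 days after application. Compounds, tested at 200 ppm in the applied formulation, are sprayed onto soybean leaf discs one day before inoculation with a spore suspension.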

[4] = test system: Glomerella lacenarium (Colletotrichum lagenarium); experiment: Glomerella lagenarium liquid culture / cucumber / preventative (anthracnose); assay type: cell-based; conditions: Colletotrichum orbiculare; 20 ppm in the applied formulation; liquid culture (PDB), growth inhibition measured photometrically 3 to 4 days after application; compared to untreated; read-out: disease control
Outline: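 Conidia from cryogenic storage were mixed into potato dextrose broth. This was added to compound diluted from DMSO into 0.025% Tween20, tested at 20 ppm. Plates were incubated in the dark at 24 °C and 96% relative humidity, and growth was read photometrically after 2–7 days as % activity versus untreated check.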

melting point | Structure (SMILES) | pest or weed control at 200 ppm [1] | pest or weed control at 200 ppm [2] | pest or weed control at 200 ppm [3] | inhibition of growth at 20 ppm [4]
142 to 146 °C | CCC(=O)NC(C)(C)c1ccc(-c2noc(C(F)(F)F)n2)cc1 [Compound 1.93, N-[1-methyl-1-[4-[5-(trifluoromethyl)-1,2,4-oxadiazol-3-yl]phenyl]ethyl]propanamide] | ≥ 80% | ≥ 80% | ≥ 80% | ≥ 80%
94 to 103 °C | COCCC(=O)NC(C)(C)c1ccc(-c2noc(C(F)(F)F)n2)cc1 [Compound 1.94, 3-methoxy-N-[1-methyl-1-[4-[5-(trifluoromethyl)-1,2,4-oxadiazol-3-yl]phenyl]ethyl]propanamide] | ≥ 80% | ≥ 80% | ≥ 80% | ≥ 80%
95 to 99 °C | COCC(=O)NC1(c2ccc(-c3noc(C(F)(F)F)n3)cc2)CC1 [Compound 1.96, 2-methoxy-N-[1-[4-[5-(trifluoromethyl)-1,2,4-oxadiazol-3-yl]phenyl]cyclopropyl]acetamide] | ≥ 80% | ≥ 80% | ≥ 80% | ≥ 80%
92 to 100 °C | O=C(COC(F)F)NCc1ccc(-c2noc(C(F)(F)F)n2)cc1 [Compound 1.97, 2-(difluoromethoxy)-N-[[4-[5-(trifluoromethyl)-1,2,4-oxadiazol-3-yl]phenyl]methyl]acetamide] | ≥ 80% | ≥ 80% | ≥ 80% | ≥ 80%
121 to 128 °C | CCC(=O)NC1(c2ccc(-c3noc(C(F)(F)F)n3)cc2)CC1 [Compound 1.99, N-[1-[4-[5-(trifluoromethyl)-1,2,4-oxadiazol-3-yl]phenyl]cyclopropyl]propanamide] | ≥ 80% | ≥ 80% | ≥ 80% | ≥ 80%
185 to 186 °C | CCC(=O)NC(C#N)c1ccc(-c2noc(C(F)(F)F)n2)cc1 (centres unmarked) [Compound 1.100, N-[cyano-[4-[5-(trifluoromethyl)-1,2,4-oxadiazol-3-yl]phenyl]methyl]propanamide] | ≥ 80% | ≥ 80% | ≥ 80% | ≥ 80%
130 to 135 °C | CC(=O)NCc1ccc(-c2noc(C(F)(F)F)n2)cc1 [Compound 1.101, N-[[4-[5-(trifluoromethyl)-1,2,4-oxadiazol-3-yl]phenyl]methyl]acetamide] | ≥ 80% | ≥ 80% | ≥ 80% | ≥ 80%
146 to 149 °C | O=C(NCc1ccc(-c2noc(C(F)(F)F)n2)cc1)C(F)(F)F [Compound 1.102, 2,2,2-trifluoro-N-[[4-[5-(trifluoromethyl)-1,2,4-oxadiazol-3-yl]phenyl]methyl]acetamide] | ≥ 80% | ≥ 80% | ≥ 80% | ≥ 80%
77 to 80 °C | COC(C)(C)C(=O)NCc1ccc(-c2noc(C(F)(F)F)n2)cc1 [Compound 1.103, 2-methoxy-2-methyl-N-[[4-[5-(trifluoromethyl)-1,2,4-oxadiazol-3-yl]phenyl]methyl]propanamide] | ≥ 80% | ≥ 80% | ≥ 80% | ≥ 80%
118 to 128 °C | CCC(=O)NCC(F)c1ccc(-c2noc(C(F)(F)F)n2)cc1 (centres unmarked) [Compound 1.107, N-[2-fluoro-2-[4-[5-(trifluoromethyl)-1,2,4-oxadiazol-3-yl]phenyl]ethyl]propanamide] | ≥ 80% | ≥ 80% | ≥ 80% | ≥ 80%
82 to 85 °C | COCCOC(=O)NCc1ccc(-c2noc(C(F)(F)F)n2)cc1 [Compound 2.3, 2-methoxyethyl N-[[4-[5-(trifluoromethyl)-1,2,4-oxadiazol-3-yl]phenyl]methyl]carbamate] | ≥ 80% | ≥ 80% | ≥ 80% | ≥ 80%
116 to 119 °C | COC(=O)NCc1ccc(-c2noc(C(F)(F)F)n2)cc1 [Compound 2.4, methyl N-[[4-[5-(trifluoromethyl)-1,2,4-oxadiazol-3-yl]phenyl]methyl]carbamate] | ≥ 80% | ≥ 80% | ≥ 80% | ≥ 80%
92 to 96 °C | CCOC(=O)NCCc1ccc(-c2noc(C(F)(F)F)n2)cc1 [Compound 2.5, ethyl N-[2-[4-[5-(trifluoromethyl)-1,2,4-oxadiazol-3-yl]phenyl]ethyl]carbamate] | ≥ 80% | ≥ 80% | ≥ 80% | ≥ 80%
107.8 to 109.7 °C | CCCOC(=O)NCc1ccc(-c2noc(C(F)(F)F)n2)cc1 [Compound 2.6, propyl N-[[4-[5-(trifluoromethyl)-1,2,4-oxadiazol-3-yl]phenyl]methyl]carbamate] | ≥ 80% | ≥ 80% | ≥ 80% | ≥ 80%
93 to 95 °C | C#CCOC(=O)NCc1ccc(-c2noc(C(F)(F)F)n2)cc1 [Compound 2.19, prop-2-ynyl N-[[4-[5-(trifluoromethyl)-1,2,4-oxadiazol-3-yl]phenyl]methyl]carbamate] | ≥ 80% | ≥ 80% | ≥ 80% | ≥ 80%
84.8 to 86.5 °C | COC(=O)NCCc1ccc(-c2noc(C(F)(F)F)n2)cc1 [Compound 2.36, methyl N-[2-[4-[5-(trifluoromethyl)-1,2,4-oxadiazol-3-yl]phenyl]ethyl]carbamat] | ≥ 80% | ≥ 80% | ≥ 80% | ≥ 80%
118 to 125 °C | CN(C)C(=O)NCc1ccc(-c2noc(C(F)(F)F)n2)cc1 [Compound 3.1, 1,1-dimethyl-3-[[4-[5-(trifluoromethyl)-1,2,4-oxadiazol-3-yl]phenyl]methyl]urea] | ≥ 80% | ≥ 80% | ≥ 80% | ≥ 80%
90.2 to 93.8 °C | CON(C)C(=O)NCc1ccc(-c2noc(C(F)(F)F)n2)cc1 [Compound 3.2, 1-methoxy-1-methyl-3-[[4-[5-(trifluoromethyl)-1,2,4-oxadiazol-3-yl]phenyl]methyl]urea] | ≥ 80% | ≥ 80% | ≥ 80% | ≥ 80%
152 to 155 °C | COCCNC(=O)NCc1ccc(-c2noc(C(F)(F)F)n2)cc1 [Compound 3.3] | ≥ 80% | ≥ 80% | ≥ 80% | ≥ 80%
